This is an account of results in PubChem BioAssay (NCI).

Structures are written as SMILES.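 Method: 48-hour compound exposure of cells in 96-well plates, five concentrations, linear interpolation of endpoints. GI50 is the concentration that inhibits growth by half. At the TGI there is no net growth.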

Some test systems named below: CAKI-1 renal; OVCAR-5 ovarian; SW-620 colon; SNB-75 CNS; CCRF-CEM leukemia; NCI/ADR-RES ovarian; COLO 205 colon; A498 renal; SK-MEL-2 melanoma; A549 NSCLC.
Assay in all cases: NCI anticancer screen, dose series, 48 h

Turning to `CS(=O)(=O)CCNCc1ccc(-c2ccc3ncnc(Nc4ccc(OCc5ccccc5)c(Br)c4)c3c2)o1`, the GI50 in the assay with CAKI-1 renal was 2.43 µM; in the assay with OVCAR-5 ovarian it was 7.05 µM; in the assay with SW-620 colon, 5.29 µM; in the assay on SNB-75 CNS, 10.1 µM; in the assay on CCRF-CEM leukemia, 9.89 µM; in the assay with NCI/ADR-RES ovarian, 6.87 µM. The GI50 was 4.69 µM in the assay with COLO 205 colon, 4.35 µM with A498 renal, 6.5 µM in the assay with SK-MEL-2 melanoma and 8.81 µM in the assay with A549 NSCLC. The TGI in the assay on CAKI-1 renal was greater than 25 µM; with OVCAR-5 ovarian it was greater than 25 µM; with SW-620 colon, 11.1 µM; with SNB-75 CNS it was greater than 25 µM; in the assay with CCRF-CEM leukemia it was greater than 25 µM; in the assay on NCI/ADR-RES ovarian it was greater than 25 µM. Also, the TGI in the assay with COLO 205 colon is 9.75 µM; in the assay on A498 renal it was 16.3 µM; in the assay on SK-MEL-2 melanoma, 13.1 µM; in the assay on A549 NSCLC, greater than 25 µM.
Take `O=C(O)c1ccc(Oc2nccc(-c3c(-c4ccc(F)cc4)ncn3C3CCNCC3)n2)cc1`: the GI50 in the assay with CAKI-1 renal, in the assay with OVCAR-5 ovarian, in the assay with SW-620 colon, with SNB-75 CNS, in the assay with NCI/ADR-RES ovarian and in the assay on COLO 205 colon was greater than 25 µM each time. Moreover, the GI50 with A498 renal, with SK-MEL-2 melanoma and in the assay with A549 NSCLC was greater than 25 µM each time. The TGI in the assay with CAKI-1 renal, with OVCAR-5 ovarian, in the assay with SW-620 colon, with SNB-75 CNS, in the assay with NCI/ADR-RES ovarian and with COLO 205 colon was greater than 25 µM each time. For the same compound, the TGI in the assay on A498 renal, in the assay with SK-MEL-2 melanoma and in the assay with A549 NSCLC was greater than 25 µM throughout.
Turning to `N#Cc1ccc2c(c1)C(=O)c1c-2n(CCCCl)c(=O)c2cc([N+](=O)[O-])ccc12`, the GI50 in the assay with CAKI-1 renal was 18 µM; in the assay on OVCAR-5 ovarian it was 65.4 µM; in the assay on SW-620 colon it was 0.801 µM; with SNB-75 CNS it was 3.51 µM; in the assay on CCRF-CEM leukemia, 0.589 µM; with NCI/ADR-RES ovarian it was 6 µM. Further, the GI50 with COLO 205 colon is greater than 100 µM; in the assay on A498 renal, 22.8 µM; in the assay with SK-MEL-2 melanoma, 16.9 µM. The TGI was greater than 100 µM in the assay with CAKI-1 renal; greater than 100 µM in the assay on OVCAR-5 ovarian; greater than 100 µM in the assay with SW-620 colon; 11.5 µM with SNB-75 CNS; 10.7 µM in the assay on CCRF-CEM leukemia; greater than 100 µM in the assay with NCI/ADR-RES ovarian. Also, the TGI in the assay on COLO 205 colon was greater than 100 µM; with A498 renal, 55.3 µM; in the assay with SK-MEL-2 melanoma it was 54.1 µM.
Consider `O=C1NC(=O)C(c2ccccc2Cl)=C1Nc1cc(Cl)c(O)c(Cl)c1`, for which the GI50 with CAKI-1 renal is greater than 21.5 µM; in the assay with OVCAR-5 ovarian it was greater than 25 µM; with SW-620 colon, 9.74 µM; in the assay on SNB-75 CNS, greater than 13 µM; in the assay with NCI/ADR-RES ovarian, 14.9 µM; in the assay on COLO 205 colon it was greater than 18.1 µM. In addition, the results for the GI50 with A498 renal, in the assay on SK-MEL-2 melanoma and with A549 NSCLC were greater than 25 µM, 12 µM and greater than 25 µM, respectively. Moreover, the TGI in the assay on CAKI-1 renal, in the assay on OVCAR-5 ovarian, in the assay with SW-620 colon, in the assay on SNB-75 CNS, in the assay with NCI/ADR-RES ovarian and in the assay with COLO 205 colon was greater than 25 µM in each case. The TGI with A498 renal, in the assay on SK-MEL-2 melanoma and in the assay on A549 NSCLC was greater than 25 µM in each case.
Regarding `C=C(C)[C@@H]1CC[C@]2(C(=O)O)CC[C@]3(C)[C@H](CC[C@@H]4[C@@]5(C)CCC(NC(=O)c6cccc(OC(C)=O)c6OC(C)=O)C(C)(C)[C@@H]5CC[C@]43C)[C@@H]12` (stereo not given in full), the GI50 in the assay on CAKI-1 renal is 0.371 µM; in the assay on OVCAR-5 ovarian it was 1.92 µM; in the assay with SNB-75 CNS, 0.452 µM; in the assay on CCRF-CEM leukemia, 0.585 µM; in the assay on NCI/ADR-RES ovarian, 0.817 µM; with COLO 205 colon it was 0.345 µM. The GI50 is 0.644 µM with A498 renal, 0.981 µM with SK-MEL-2 melanoma and 0.409 µM in the assay on A549 NSCLC. The TGI is 2.24 µM in the assay with CAKI-1 renal; greater than 27.3 µM in the assay with OVCAR-5 ovarian; 5.44 µM in the assay with SNB-75 CNS; 18.9 µM in the assay on CCRF-CEM leukemia; 6.43 µM with NCI/ADR-RES ovarian; 1.9 µM with COLO 205 colon. For the same compound, the TGI in the assay with A498 renal was determined as 1.97 µM; in the assay on SK-MEL-2 melanoma, 4.02 µM; in the assay on A549 NSCLC, 2.47 µM.
For the compound `C=C1C(C2(C)C(OC(C)=O)CC(=O)OC(C)(COC(C)=O)C2CC(=O)OC)C(OC=O)C(OC(=O)C(O)C(C)CC)C2(C)C(c3ccoc3)CC(=O)C12O` (stereo not given), the TGI in the assay on CAKI-1 renal is 11.7 µM; in the assay on OVCAR-5 ovarian, greater than 100 µM; in the assay on SW-620 colon, greater than 100 µM; with SNB-75 CNS, greater than 100 µM; in the assay with NCI/ADR-RES ovarian, greater than 100 µM; in the assay on COLO 205 colon, greater than 100 µM. In addition, the TGI is greater than 29.3 µM with A498 renal, greater than 100 µM in the assay on SK-MEL-2 melanoma and greater than 100 µM in the assay with A549 NSCLC.
Take `O=C1c2ccccc2-c2oc(=O)c3ccccc3c21`: the TGI in the assay with CAKI-1 renal, with OVCAR-5 ovarian, in the assay with SW-620 colon, with SNB-75 CNS, in the assay with CCRF-CEM leukemia and with NCI/ADR-RES ovarian was greater than 100 µM in each case. Also, the TGI with COLO 205 colon, with A498 renal and in the assay on SK-MEL-2 melanoma was greater than 100 µM throughout.
